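Following 48 hours of exposure in 96-well plates, responses at five concentrations were used to interpolate endpoints linearly. At the GI50, growth is halved.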 Calls of active or inactive are those of the source. Rule as the data show it: active = GI50 up to about 1.1 µM and inactive = higher.
Assays:
Experiment in all cases: growth of human tumour cells (NCI), 48 h
OVCAR-8 = tested on: OVCAR-8
HL-60 = tested on: HL-60
NCI-H460 = tested on: NCI-H460
SN12C = tested on: SN12C
K562 = tested on: K562
SR = tested on: SR
DLD-1 = tested on: DLD-1
UACC-62 = tested on: UACC-62
SK-MEL-28 = tested on: SK-MEL-28
ACHN = tested on: ACHN
M14 = tested on: M14
HOP-62 = tested on: HOP-62
OVCAR-5 = tested on: OVCAR-5
OVCAR-4 = tested on: OVCAR-4
RPMI-8226 = tested on: RPMI-8226
SF-539 = tested on: SF-539
SK-MEL-2 = tested on: SK-MEL-2
NCI-H226 = tested on: NCI-H226
MOLT-4 = tested on: MOLT-4

Measured: GI50

O=C1C2Nc3ccccc3SC2C(=O)N1c1ccccc1C(F)(F)F (stereo unspecified)
inactive: OVCAR-8 33.7 µM | HL-60 5.19 µM | NCI-H460 32.7 µM | SN12C 27.2 µM | K562 3.99 µM | SR 32.7 µM | DLD-1 27.3 µM | UACC-62 19 µM | SK-MEL-28 51.9 µM | ACHN 40.3 µM | M14 16 µM | HOP-62 25.4 µM | OVCAR-5 > 100 µM | OVCAR-4 43.1 µM | RPMI-8226 29 µM | SF-539 17.8 µM | SK-MEL-2 27.2 µM | NCI-H226 43.1 µM | MOLT-4 23.2 µM

CCOC(=O)/C(=C\c1cccs1)P(=O)(OCC)OCC
inactive: OVCAR-8 25.4 µM | HL-60 13.9 µM | NCI-H460 20.1 µM | SN12C 19.7 µM | K562 29.9 µM | SR 19.1 µM | DLD-1 21.2 µM | UACC-62 16.4 µM | SK-MEL-28 17.2 µM | ACHN 17.6 µM | M14 16.1 µM | HOP-62 48.2 µM | OVCAR-5 21.9 µM | OVCAR-4 19 µM | RPMI-8226 20.4 µM | SF-539 20.8 µM | SK-MEL-2 16.4 µM | NCI-H226 18.7 µM | MOLT-4 25.8 µM

FC(F)(F)c1nc(-c2ccccc2)oc1Sc1oc(-c2ccccc2)nc1C(F)(F)F
inactive: OVCAR-8 36.7 µM | HL-60 > 100 µM | NCI-H460 99.1 µM | SN12C > 100 µM | K562 > 100 µM | SR 46.6 µM | DLD-1 > 100 µM | UACC-62 > 100 µM | ACHN 28.8 µM | M14 56.9 µM | HOP-62 58.7 µM | OVCAR-5 > 100 µM | OVCAR-4 19.7 µM | RPMI-8226 93.3 µM | SF-539 55.6 µM | SK-MEL-2 > 100 µM | NCI-H226 45.2 µM | MOLT-4 > 100 µM

O=c1c2ccccc2nc(-c2ccccc2)n1NC(=S)Nc1cccc(Cl)c1
inactive: OVCAR-8 > 100 µM | HL-60 > 100 µM | NCI-H460 > 100 µM | SN12C > 100 µM | K562 > 100 µM | SR > 100 µM | DLD-1 > 100 µM | UACC-62 75 µM | SK-MEL-28 > 100 µM | ACHN > 100 µM | M14 > 100 µM | HOP-62 60.3 µM | OVCAR-5 > 100 µM | OVCAR-4 > 100 µM | RPMI-8226 > 100 µM | SF-539 79.1 µM | SK-MEL-2 > 100 µM | NCI-H226 > 100 µM | MOLT-4 > 100 µM

O=[N+]([O-])c1ccc(-c2ccc(-c3csc(Nc4ccccc4)n3)o2)cc1
inactive: OVCAR-8 19.5 µM | HL-60 2.48 µM | NCI-H460 34.8 µM | SN12C 18.6 µM | K562 7.59 µM | SR 1.9 µM | DLD-1 23.3 µM | UACC-62 21.3 µM | SK-MEL-28 17.6 µM | ACHN 17.3 µM | M14 20.6 µM | HOP-62 > 68.4 µM | OVCAR-5 17.7 µM | OVCAR-4 17.3 µM | RPMI-8226 12.2 µM | SF-539 18.8 µM | SK-MEL-2 19.2 µM | NCI-H226 40.6 µM | MOLT-4 3.62 µM

[O-]c1c2c(nn1-c1ccc(Cl)cc1)c1ccccc1c[n+]2Cc1ccccc1
inactive: OVCAR-8 65.9 µM | HL-60 > 100 µM | NCI-H460 > 100 µM | SN12C > 100 µM | K562 > 100 µM | SR > 100 µM | DLD-1 81.5 µM | UACC-62 44.6 µM | SK-MEL-28 > 100 µM | ACHN 80.5 µM | M14 > 100 µM | HOP-62 > 100 µM | OVCAR-5 > 100 µM | OVCAR-4 46.2 µM | RPMI-8226 > 100 µM | SF-539 80.4 µM | SK-MEL-2 > 100 µM | NCI-H226 > 100 µM | MOLT-4 > 100 µM

O=C1[C@@H]2C(c3ccccc3[N+](=O)[O-])=[N+](c3ccccc3)O[C@@H]2C(=O)N1c1ccc(Cc2ccc(N3C(=O)[C@H]4C(c5ccccc5[N+](=O)[O-])=[N+](c5ccccc5)O[C@H]4C3=O)cc2)cc1
inactive: OVCAR-8 > 100 µM | HL-60 > 100 µM | NCI-H460 > 100 µM | SN12C > 100 µM | K562 > 100 µM | SR > 100 µM | DLD-1 > 100 µM | UACC-62 67.6 µM | SK-MEL-28 > 100 µM | ACHN > 100 µM | M14 16.4 µM | HOP-62 > 100 µM | OVCAR-5 > 100 µM | OVCAR-4 > 100 µM | RPMI-8226 > 100 µM | SF-539 > 100 µM | SK-MEL-2 > 100 µM | NCI-H226 74.8 µM | MOLT-4 > 100 µM

CS/C(=C(\S)c1ccccc1)c1ccccc1
inactive: OVCAR-8 > 100 µM | HL-60 > 100 µM | NCI-H460 > 100 µM | SN12C > 100 µM | K562 > 100 µM | SR 50.6 µM | DLD-1 > 100 µM | UACC-62 > 100 µM | SK-MEL-28 > 100 µM | ACHN > 100 µM | M14 > 100 µM | HOP-62 > 100 µM | OVCAR-5 > 100 µM | OVCAR-4 > 87.1 µM | RPMI-8226 > 100 µM | SF-539 > 100 µM | SK-MEL-2 > 100 µM | NCI-H226 > 100 µM | MOLT-4 > 10 µM
